According to US9522908B2, “Ezrin inhibitors and methods of making and using” (Georgetown University, priority 2010, dated 2016):

Key:
ezrin in K7M2 OS cells = molecular target: T1, ezrin in K7M2 OS cells (Mus musculus, UniProt P26040); assay: Endogenous ezrin T567 phosphorylation and actin binding in K7M2 cells (immunoprecipitation/immunoblot); format: cell-based; details: 10 μM
T1 construct: endogenous in cells; host or cells: K7M2 osteosarcoma cells
Method: (§1) K7M2 cells that were treated with embodied compounds and resolved protein lysates were immunoblotted for co-precipitated phosphorylated ezrin (TOP), or actin (BOTTOM). 4.0×10^6 K7M2 cells were plated in 15 cm dishes. After 24 h, the plates are at least 70% confluent. Media was removed and 10 μM of compound in SF DMEM was added. After the ezrin protein was incubated for 5 h with the indicated compound, the plates were lysed with PLB containing Calyculin A. 2 μL of Ezrin Ab and 10 μM of the compound (prepared in PLB) were added to the lysate and allowed to incubate overnight (14 h), followed by tumbling with Agarose IgG beads. The mixture was run on 10% acrylamide gel and transferred overnight.
as §1, with “removed and either 7 μM or 10 μM” for “removed and 10 μM”
For analysis of actin binding to FL and mutant ezrin, K12 cell lysate was incubated with recombinant ezrin protein, then subjected to immunoprecipitation with ezrin antibody (Sigma, St. Louis, Mo.) and immunoblotted with actin antibody (Santa Cruz, Santa Cruz, Calif.). For analysis of inhibition of small molecules on ezrin phosphorylation and actin binding, K7M2 cell lysates were treated with compounds at 10 μM concentration for 6 hours, followed by immunoprecipitation with the ezrin antibody and immunoblotted with phospho-ezrin (Cell Signaling, Danvers, Mass.), actin and ezrin antibodies.

[1] = test system: K7M2, K12 and HUVEC cells; assay: Toxicity to cells at invasion assay concentrations; format: cell-based; details: 1 μM and 10 μM; data not shown
Method: Chemotaxis experiments were performed in 96 well Boyden chamber as described previously (Chen, K., et al., Pediatr. Blood Cancer, 51, 349-355 (2008)). To measure effect of compounds on cellular toxicity, WST viability assay (Roche, Indianapolis, Ind.) was performed in parallel to chemotaxis experiments.

zebrafish embryos = assay: Zebrafish embryo development assay; format: in vivo, Zebrafish (Danio rerio)
Method: Animals. Zebrafish (Danio rerio) were raised, maintained and crossed as described before (Westerfield, M. University of Oregon Press, Eugene. Or., 1993). Development of embryos was studied at 28° C. and staging was determined by morphological characteristics (Kimmel, C. B., et al., Dev. Dyn. 203, 253-310 (1995)).
A translation blocking anti-ezrin morpholino oligonucleotide (MO), described and validated by Link et al. (Link, V., et al., J. Cell Sci., 119, 2073-2083 (2006)), MO1, 5′-[…] (SEQ ID NO:1), was synthesized by Gene-Tools, LCC (Philomath, Oreg.). MOs were microinjected into one to four cell stage embryos.
Zebrafish embryos were arrayed, three per well, in 96-well plates. Compounds were added at 1-33 μM concentrations. Embryos were observed, and photographed, at 70% epiboly, 24-28 hours post fertilization (hpf) and 48 hpf.

[2] = test system: GFP expressing K7M2 OS cells; assay: Pulmonary metastasis assay (PuMA), lung organ culture; design: species or system mice; details: 10 μM
Method: FIG. 5 illustrates NSC305787 and NSC668394 inhibit OS metastatic growth in lung organ culture. GFP expressing K7M2 OS cells (2×10^5) were injected to tail vein of female BALB/c mice. Within 15 min of tumor cells injection, mice were euthanized and lungs were injected with a mixed agarose/medium solution and then were removed. Complete transverse sections (1-2 mm in thickness) were made from each lobe and 4-5 lung sections were placed on a single 1.5×0.7 cm sterile Gelfoam section. Lung sections were incubated at 37° C. in humidified conditions of 5% CO2. Fresh medium or small molecules (10 μM) were replaced every other day. (A) Quantitation of the fluorescence signal from NSC305787 (10 μM) and NSC668394 (10 μM) treated organ cultures over time. Metastatic burden was quantified by measuring the fluorescent area of metastatic cells in each lung section at each time point and was expressed as mean fluorescent area (mean fluorescent area of each lung section over 4 lung sections). Mean fluorescent area was normalized to 100 pixels for day 0 to allow quantitative evaluation of metastatic progression over time. Data are represented as mean .s.d. from three independent experiments. (B) Fluorescence pictures of a representative culture treated with 10 μM NSC305787 and 10 μM NSC668394 are given on the right panel. […]

[3] = test system: K7M2 metastatic OS tumor cells; assay: In vivo experimental lung metastasis model, K7M2 cells; design: species or system mice
Method: (§2) FIG. 6 illustrates NSC305787 and NSC668394 inhibit in vivo OS metastatic growth in lungs. (A) K7M2 metastatic OS tumor cells (1×10^6) were injected via tail vein. Vehicle (1% DMSO), NSC305787 (240 μg/kg) and NSC668394 (226 μg/kg) were injected 5 days a week intraperitoneally. Kaplan-Meier survival curves show percent survival for NSC305787 and NSC668394 treatment over time. Median survival of vehicle, NSC305787 and NSC668394 treated K7M2 cells were 28.5, 50, and 49 days after tumor cell injection. […] (B) Fluorescence pictures of whole lungs are given. […] (C) GFP expressing ezrin independent MNNG, human OS cells were injected to mice and treated with vehicle (1% DMSO), NSC305787 (240 μg/kg) and NSC668394 (226 μg/kg). Survival of each group is not different probably because MNNG is an ezrin independent cell line. Median survival of vehicle, NSC305787 and NSC668394 treated MNNG cells were 50.5, 49, and 48.5 days after tumor cell injection. (D) Fluorescent images of the lung tissues of this group are given.
(§3) GFP expressing K7M2 or MNNG tumor cells (1×10^6) were delivered by tail vein to nude mice. One day after injection, vehicle, NSC305787 (240 μg/kg/inj) and […] (226 μg/kg/inj) were injected 5 days a week intraperitoneally.

MNNG, human OS cells = assay: In vivo experimental lung metastasis model, ezrin independent MNNG cells; design: species or system mice
Method: as §2, §3

T1 sequence (P26040 whole entry): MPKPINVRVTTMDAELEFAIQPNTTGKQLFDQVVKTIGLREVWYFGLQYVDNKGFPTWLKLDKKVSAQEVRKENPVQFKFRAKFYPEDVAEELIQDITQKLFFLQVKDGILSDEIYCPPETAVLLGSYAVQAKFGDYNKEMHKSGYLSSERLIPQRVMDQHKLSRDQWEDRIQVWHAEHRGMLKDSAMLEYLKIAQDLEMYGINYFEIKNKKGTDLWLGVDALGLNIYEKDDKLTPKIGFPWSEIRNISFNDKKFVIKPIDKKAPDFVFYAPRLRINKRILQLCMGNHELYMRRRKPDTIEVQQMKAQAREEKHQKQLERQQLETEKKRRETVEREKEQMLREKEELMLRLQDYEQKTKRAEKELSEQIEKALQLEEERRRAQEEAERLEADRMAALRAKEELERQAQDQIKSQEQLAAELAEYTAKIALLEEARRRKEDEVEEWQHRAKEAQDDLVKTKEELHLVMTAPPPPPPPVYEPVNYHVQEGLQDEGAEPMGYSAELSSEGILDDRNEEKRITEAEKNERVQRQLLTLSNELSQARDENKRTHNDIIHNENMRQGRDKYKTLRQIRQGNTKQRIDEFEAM

OC(c1cc(C23CC4CC(CC(C4)C2)C3)nc2c(Cl)cc(Cl)cc12)C1CCCCN1 (centres unmarked) [NSC305787]
cellular ezrin protein levels (ezrin in K7M2 OS cells): without altering cellular ezrin protein levels
T567 phosphorylation of endogenous ezrin (ezrin in K7M2 OS cells; 6 hours): inhibited
actin binding of ezrin (ezrin in K7M2 OS cells; 6 hours): inhibited
toxicity to K7M2, K12 and HUVEC cells [1]: not toxic
embryos with epiboly defects (zebrafish embryos; 10 μM): 15%
embryos with epiboly defects (zebrafish embryos; 20 μM): 100%
lung metastasis of K7M2 cells in lung organ culture (GFP fluorescence) [2]: significantly inhibited
number of GFP expressing metastatic foci in lung tissues ([3]; K7M2 cells): significant decrease
median survival after tumor cell injection ([3]; K7M2 cells by tail vein, i.p. 5 days a week, vehicle 28.5 days): 50 days
number of GFP expressing metastatic foci in lung tissues (MNNG, human OS cells; MNNG cells): not a significant difference
median survival after tumor cell injection (MNNG, human OS cells; MNNG cells by tail vein, i.p. 5 days a week, vehicle 50.5 days): 49 days
